The test addresses GluR4 (GluR4flip) (Rattus norvegicus, UniProt P19493, L505Y). Put plainly: whole-cell voltage-clamp dose-response. In kind it is cell-based.

What is called EC50 is the concentration needed to bring the measured effect to its halfway point. A higher EC50 goes with a need for much substance.

Chain of GluR4 (GluR4flip) (P19493 21-902 isoform P19493-2 L505Y): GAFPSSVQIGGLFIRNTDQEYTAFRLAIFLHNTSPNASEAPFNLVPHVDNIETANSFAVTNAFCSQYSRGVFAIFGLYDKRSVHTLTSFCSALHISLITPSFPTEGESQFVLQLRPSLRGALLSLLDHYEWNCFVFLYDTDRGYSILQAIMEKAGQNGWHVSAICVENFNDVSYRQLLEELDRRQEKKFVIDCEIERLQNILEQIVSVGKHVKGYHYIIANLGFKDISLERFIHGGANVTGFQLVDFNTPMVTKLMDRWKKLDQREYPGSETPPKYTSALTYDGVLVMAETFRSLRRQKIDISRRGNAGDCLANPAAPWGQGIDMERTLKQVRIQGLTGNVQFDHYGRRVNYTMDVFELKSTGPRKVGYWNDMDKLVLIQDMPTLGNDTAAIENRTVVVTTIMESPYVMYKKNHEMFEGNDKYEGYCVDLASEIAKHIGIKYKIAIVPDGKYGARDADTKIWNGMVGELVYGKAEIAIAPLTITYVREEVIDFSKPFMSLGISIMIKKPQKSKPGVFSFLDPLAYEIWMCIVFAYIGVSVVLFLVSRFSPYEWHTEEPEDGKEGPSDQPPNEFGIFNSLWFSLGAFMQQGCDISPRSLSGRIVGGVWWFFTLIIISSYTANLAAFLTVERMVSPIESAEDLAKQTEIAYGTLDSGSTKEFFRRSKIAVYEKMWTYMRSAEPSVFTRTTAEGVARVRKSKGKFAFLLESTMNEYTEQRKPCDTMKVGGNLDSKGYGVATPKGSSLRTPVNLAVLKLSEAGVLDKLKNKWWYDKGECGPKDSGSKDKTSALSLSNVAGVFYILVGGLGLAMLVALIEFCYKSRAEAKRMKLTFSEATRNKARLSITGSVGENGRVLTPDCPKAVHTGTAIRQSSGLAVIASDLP

The compound `C=C(C)[C@H]1CN[C@H](C(=O)O)[C@H]1CC(=O)O` [Kainate, 2-carboxy-3-carboxymethyl-4-isopropenyl-pyrrolidine] displayed an EC50 of 92 ± 14 µM.

The values are drawn from PMC2629381 (Biochemistry, 2008).
